# Experimental data: patent US4665074A, “6-(polyfluoroalkoxyphenyl) pyridazinones, their compositions, synthesis and use” (Byk Gulden Lomberg Chemische Fabrik GmbH, priority 1984, dated 1987)
# Tests used:
# [1] = system: acetylcholine-induced bronchospasm; assay: Protective action against acetylcholine-induced bronchospasm in conscious guinea pigs; format: in vivo, guinea pig; conditions: 100 μmol/kg p.o.; test 30 min after application; acetylcholine mist 0.06%
# Experimental: Guinea pigs (250-350 g) in a closed Plexiglas cylinder (volume: 5 l) are exposed to a mist of acetylcholine (0.06% in 0.9% sodium chloride solution; Heyer Use 77 ultrasonic atomizer) twice at an interval of 20 minutes. The time from the start of atomization until there is onset of a marked struggle to breathe (in certain circumstances, a hypoxic convulsion in the lateral position) is measured and designated the latency perid. […] The test substance is administered orally by gavage (standard dose 100 μmol/kg, volume 1 ml of 4% strength methocel suspension in 0.9% strength sodium chloride solution/kg). After 30 minutes, the animals are again exposed to the mist of acetylcholine, and the latency periods are measured. A prolongation of the latency period to […] is regarded as a protective action.
# [2] = system: isolated, spontaneously contracted chain of tracheal rings of the guinea pig; assay: Bronchospasmolytic action in vitro on chain of tracheal rings (relaxation of spontaneous tonic contraction); format: cell-based; conditions: for -lg(EC50) trachea / EC50: EC50 in mol/l, 50% of maximum relaxation achieved by (-)isoprenaline 10^-6 mol/l, 37°; for (EC50)theophylline / (EC50)substance: activity on trachea relative to theophylline; for (EC40pot.) left atrium / (EC50)trachea: organ-selectivity ratio, rat left atrium vs guinea pig trachea; for EC50: Cavia porcellus, read-out: -lg(EC50) trachea (converted)
# Experimental: To test the bronchospasmolytic action of the compounds in vitro on a chain of tracheal rings of the guinea pig, such tracheal rings are subjected to the following procedure:
# Four parallel chains of tracheal rings (each consisting of 6 individual rings) of guinea pigs (.male. and .female., 430-600 g) in an organ bath [5 ml, Krebs-Henseleit solution with added phentolamine (10^-5 mol/l), 37°, initial tension of the organs 2 g, gassing with carbogen] develop a stable, spontaneous tonic contraction after about 20 to 30 minutes. […] Over a period of from 20 to 30 minutes, a complete dose/action curve of the test substance is thus obtained. The particular relaxation is expressed as a percentage fraction of the maximum relaxation achieved by administration of (-)isoprenaline (10^-6 mol/l).
# (§1) The measure used for the organ-selective activity is the ratio between (EC40pot.) left atrium and (EC50)trachea. As a measure of the activity, the ratios between (EC50)trachea values and (EC40pot.)left atrium values of theophylline and the tested compound are given.
# [3] = system: electrically-stimulated left atrium of the rat; assay: Positive inotropic action in vitro on electrically-stimulated left atrium; format: cell-based; conditions: for -lg(EC40pot.) left atrium / EC40: EC40pot. in mol/l, 40% increase in contraction force vs initial value, 31°; for (EC40pot.)theophylline /(EC40pot.)substance: activity on left atrium relative to theophylline; for EC40: Rattus norvegicus, read-out: -lg(EC40pot.) left atrium (converted)
# Experimental: Testing the positive inotropic action of the compounds in vitro on the electrically-stimulated left atrium of the rat is effected as follows:
# Isometric contractions (HSE force sensor K-30; Watanabe recorder, Linear Corder Mark 5) of isolated left atria of rats (.male., 250-300 g) in an organ bath (10 ml, Tyrode nutrient solution, 31°, gassing with carbogen, initial tension of the organs 0.25 g) with electric stimulation (HSE stimulator, 7 V, 3 ms, 2 Hz) are recorded. After an equilibration period of 30 minutes, a dose-dependent increase in the contraction force is brought about by administration of the test substance in concentrations which increase semilogarithmically and cumulatively (for example 1×10^-6 +2×10^-6 +7×10^-6 +2×10^-5etc. mol/l), a constant inotropic response being waited for after each individual dose of the test substance before the next higher concentration is administered. The particular increase in the contraction force is expressed as a % of the initial value before administration of the substance. The concentration of the test substance which potentiates the contraction force of the atrium by 40% compared with the initial value (EC40pot.mol/l), expressed by the negative logarithm of (EC40pot.mol/l): -1 g(EC40pot.), serves as a measure of the cardiotonic activity.
# as §1
compound,measurement,setting,value
6-(4-difluoromethoxy-3-methoxyphenyl)-3[2H]pyridazinone [Serial No. 5],Tripling of the latency period in N of 10 animals,[1],7 of 10 animals
same,-lg(EC50) trachea,[2],5.80
same,(EC50)theophylline / (EC50)substance,[2],85
same,(EC40pot.) left atrium / (EC50)trachea,[2],1.1
same,-lg(EC40pot.) left atrium,[3],5.76
same,(EC40pot.)theophylline /(EC40pot.)substance,[3],240
"O=c1ccc(-c2ccc(OC(F)(F)F)cc2)n[nH]1 [Serial No. 1, 6-(4-trifluoromethoxyphenyl)-3[2H]pyridazinone]",-lg(EC50) trachea,[2],4.60
same,-lg(EC50) trachea,[2]; listed as 2,5.11
same,(EC50)theophylline / (EC50)substance,[2],5.4
same,(EC50)theophylline / (EC50)substance,[2]; listed as 2,17.4
same,(EC40pot.) left atrium / (EC50)trachea,[2],4.0
same,(EC40pot.) left atrium / (EC50)trachea,[2]; listed as 2,2.8
same,-lg(EC40pot.) left atrium,[3],4.0
same,-lg(EC40pot.) left atrium,[3]; listed as 2,4.66
same,(EC40pot.)theophylline /(EC40pot.)substance,[3],4.2
same,(EC40pot.)theophylline /(EC40pot.)substance,[3]; listed as 2,19
"O=c1ccc(-c2cccc(OC(F)(F)C(F)F)c2)n[nH]1 [Serial No. 2, 6-[3-(1,1,2,2-tetrafluoroethoxy)phenyl]-3[2H]pyridazinone]",Tripling of the latency period in N of 10 animals,[1],8 of 10 animals
"O=c1ccc(-c2ccc(OC(F)(F)C(F)F)cc2)n[nH]1 [Serial No. 3, 6-[4-(1,1,2,2-tetrafluoroethoxy)phenyl]-3[2H]pyridazinone]",EC50,[2],9.12 µM
same,(EC50)theophylline / (EC50)substance,[2],13.2
same,(EC40pot.) left atrium / (EC50)trachea,[2],6.8
same,EC40,[3],61.7 µM
same,(EC40pot.)theophylline /(EC40pot.)substance,[3],6.8
"Cn1c(=O)c2[nH]cnc2n(C)c1=O [Theophylline, theophylline, reference compound]",Tripling of the latency period in N of 10 animals,[1],3 of 10 animals
same,EC50,[2],135 µM
same,(EC40pot.) left atrium / (EC50)trachea,[2],3.1
same,EC40,[3],417 µM
COc1cc(-c2ccc(=O)[nH]n2)ccc1OC(F)F [compound 5],Tripling of the latency period in N of 10 animals,[1],9 of 10 animals
same,EC50,[2],1.23 µM
same,(EC50)theophylline / (EC50)substance,[2],110
same,(EC40pot.) left atrium / (EC50)trachea,[2],0.7
same,EC40,[3],0.871 µM
same,(EC40pot.)theophylline /(EC40pot.)substance,[3],469
O=c1ccc(-c2ccc(OC(F)F)cc2)n[nH]1 [compound 6],Tripling of the latency period in N of 10 animals,[1],8 of 10 animals
same,EC50,[2],12 µM
same,(EC50)theophylline / (EC50)substance,[2],11.2
same,(EC40pot.) left atrium / (EC50)trachea,[2],2.7
same,EC40,[3],32.4 µM
same,(EC40pot.)theophylline /(EC40pot.)substance,[3],12.9
O=c1ccc(-c2cccc(OC(F)F)c2)n[nH]1 [compound 7],Tripling of the latency period in N of 10 animals,[1],9 of 10 animals
same,EC50,[2],14.5 µM
same,(EC50)theophylline / (EC50)substance,[2],9.3
same,(EC40pot.) left atrium / (EC50)trachea,[2],> 6.9
same,EC40,[3],> 100 µM
